Assays:
caspase 3/7 in NGP = test: Caspase-Glo 3/7 assay; assay type: cell-based, human; settings: 48 h, 1 μM tariquidar
Protocol: (§1) Neuroblastoma cells were seeded in 384-well plates at different densities ranging from 1200 to 5000 cells/well and allowed to adhere overnight. Compound treatment was performed using the D300e Digital Dispenser (Tecan) in duplicate. At the 48 h time point, a Caspase-Glo 3/7 Assay (Promega, #G8090) was performed following the manufacturer’s protocol, but adapted to add a 1:2 ratio of Caspase-Glo 3/7 reagent volume to sample volume. The readout was performed using the GloMax Discover Microplate Reader (Promega). Caspase 3/7 luminescence values were normalized to that of the DMSO negative control, and mean relative caspase 3/7 luminescence values were calculated from 3 individual experiments.

[1] = test system: caspase 3/7 in SK-N-BE(2)-C; test: Caspase-Glo 3/7 assay; assay type: cell-based, human; settings: 48 h, 1 μM tariquidar
Protocol: as §1

AURKA = molecular target: T1, AURKA (Homo sapiens, UniProt O14965); test: In vivo pharmacodynamics study, IMR-32 cell line-derived xenograft, Western blot; set-up: from tissue; host or cells: IMR-32 cell line-derived xenograft tumours, BALB/c nude mice; species or system BALB/c nude mice; settings: for AURKA protein reduction in tumor (in words): single IP dose 15 mg/kg; for AURKA protein levels in tumor (in words): single IV dose 15 mg/kg
T1 sequence (O14965 1-403): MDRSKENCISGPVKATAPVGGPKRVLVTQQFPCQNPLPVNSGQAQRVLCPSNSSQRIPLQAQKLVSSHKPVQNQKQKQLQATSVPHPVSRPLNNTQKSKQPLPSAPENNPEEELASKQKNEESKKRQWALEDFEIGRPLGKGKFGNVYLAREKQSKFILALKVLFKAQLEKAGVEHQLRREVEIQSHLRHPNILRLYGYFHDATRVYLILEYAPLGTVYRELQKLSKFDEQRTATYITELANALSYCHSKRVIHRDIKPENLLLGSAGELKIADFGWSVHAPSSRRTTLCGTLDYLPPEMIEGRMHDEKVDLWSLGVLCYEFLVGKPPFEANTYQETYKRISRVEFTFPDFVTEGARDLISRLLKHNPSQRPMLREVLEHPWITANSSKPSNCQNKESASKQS
Protocol: Protein lysates were denatured through addition of Laemmli buffer supplemented with β-mercaptoethanol (Sigma-Aldrich, #M6250) heated at 95 °C for 10 min. […] The ladder used was the PageRuler Prestained Protein Ladder (Thermo Fisher Scientific, #26617). Afterward, proteins were blotted on nitrocellulose membranes (Bio-Rad, #162-0233) by running at 100 V for 1 h with a buffer containing 10% 10× Tris/glycine (Bio-Rad, #161-0771) and 20% methanol (Thermo Fisher Scientific, #0390D). Ponceau staining was used for confirmation of protein transfer. Membranes were blocked in 5% milk/TBST or 5% BSA/TBST for 1 h at room temperature and subsequently incubated with primary antibodies overnight at 4 °C. Blots were washed 3× for 5 min each with TBST prior to incubation with secondary antibodies for 1 h at room temperature. Visualization of the blots was done using WestDura or WestFemto (Thermo Fisher Scientific, #34096, #34076) with the Amersham Imager 680 (BIOKÉ). Blots were stripped using the Restore Stripping Buffer (Thermo Fisher Scientific, #21059) prior to detection of additional proteins. Images were compiled and quantified using Sciugo (https://sciugo.com/). Per lane, quantified data were always normalized to that of the loading control (Vinculin or GAPDH), prior to calculating fold changes. Mean fold changes are calculated from 3 individual experiments. A list of the primary and secondary antibodies used can be found in the Supporting Information (Supplementary Table S7).
Both the in vivo pharmacokinetics and in vivo pharmacodynamics studies were performed by Eurofins Pharmacology Discovery Services. All mice were provided by BioLasco Taiwan (under Charles River Laboratories Licensee). Animals were acclimated for 3 days prior to use and were confirmed to be in good health. All aspects of this work including housing, experimentation, and animal disposal were performed in general accordance with the “Guide for the Care and Use of Laboratory Animals: Eighth Edition” (National Academies Press, Washington, DC. 2011) in a AAALAC-accredited laboratory animal facility. In addition, the animal care and use protocol was reviewed and approved by the IACUC at Eurofins Pharmacology Discovery Services; IN020-08202020 and ON002-07142023.
Six-week old female BALB/c nude mice were subcutaneously implanted with viable IMR-32 cells formulated in 50% Matrigel into the right flank (1 × 10^7 cells/mouse, in 0.2 mL volume). Palpable tumor volumes were measured with a caliper and calculated according to the prolate ellipsoid formula: tumor volume = length × width^2 × 0.5. When the mean tumor volume reached ∼250 mm^3, animals were randomized into groups (0, 4, 8, 24 h) with 3 animals per group. […] Other groups were given a single IV or IP administration of SK5527 or SK4454 at 15 mg/kg (dissolved in 5% DMSO/5% Solutol HS15/90% PBS). Tumors were subsequently harvested at the respective time points, snap-frozen in liquid nitrogen, and kept frozen at −70 °C until further processing. Upon receipt of the samples in our lab, we mechanically digested and lysed tumor pieces by adding cold RIPA lysis buffer (with protease and phosphatase inhibitors as previously described) and Stainless Steel Beads (Qiagen, #69989) followed by shaking for 2 min (twice) using TissueLyser II (Qiagen). Afterward, samples were centrifuged for 20 min (10,000 rpm, 4 °C). The supernatant was then collected and the concentration of the obtained protein lysates was measured using the Pierce BCA Protein Assay Kit (Thermo Fisher Scientific, #23227). Western blot was performed as previously described to visualize changes in AURKA protein levels.

| Compound | induction of apoptosis (caspase 3/7) upon cotreatment with tariquidar (in words) (caspase 3/7 in NGP) | induction of apoptosis (caspase 3/7) upon cotreatment with tariquidar (in words) [1] | AURKA protein reduction in tumor (in words) (AURKA) | AURKA protein levels in tumor (in words) (AURKA; 4 and 8 h post-treatment) | AURKA protein levels in tumor (in words) (AURKA; 24 h) |
| --- | --- | --- | --- | --- | --- |
| Cc1cc(Nc2ccc(F)c(CC3(C(=O)N4CCC(CN5CCN(c6ccc(N7CCC(=O)NC7=O)cn6)CC5)CC4)CCN(Cc4cccc(Cl)c4F)CC3)n2)n[nH]1 [SK4454] | no difference | significant increased induction of apoptosis | not observed | strongly reduced AURKA protein levels | return to baseline levels |
| Cc1cc(Nc2ccc(F)c(CC3(C(=O)N4CCC(F)(CN5CCN(c6ccc(N7CCC(=O)NC7=O)cn6)CC5)CC4)CCN(Cc4cccc(Cl)c4F)CC3)n2)n[nH]1 [SK5527] | no difference | significant increased induction of apoptosis | not observed | strongly reduced AURKA protein levels | return to baseline levels |

Source: publication PMC12670405, “Second-Generation AURKA-Targeting PROTACs: Structural Optimization toward in Vivo Degradation in Neuroblastoma” (Journal of Medicinal Chemistry, 2025)
